Article PMC8188729 (Nature, 2020)
Where two headings read alike, the source gives them in different places.

Legend:
HIV-1IIIb = assay: microbe, parasite or virus in culture; assay type: cell-based
HIV-1BaL [1] = assay: p24 endpoint antiviral assay in primary human CD4+ T-lymphocytes; assay type: cell-based; conditions: Human immunodeficiency virus 1, CD4+ T, read-out: mean EC50
HIV-1BaL [2] = assay: p24 endpoint antiviral assay in macrophage cultures; assay type: cell-based; conditions: Human immunodeficiency virus 1, Macrophage, read-out: mean EC50
Cytotoxicity assay [3] = assay type: cell-based; conditions: human, Gal-HepG2 cells
Cytotoxicity assay [4] = assay type: cell-based; conditions: human, Gal-PC-3 cells
Cytotoxicity assay [5] = assay type: cell-based; conditions: human, MRC-5 cells
Cytotoxicity assay [6] = assay type: cell-based; conditions: human, quiescent PBMCs
Cytotoxicity assay [7] = assay type: cell-based; conditions: human, monocyte-derived macrophages
Gag polyprotein = Gag polyprotein (Human immunodeficiency virus type 1 group M subtype B, UniProt P12493); assay: biochemical; assay type: binding
CA monomer = CA monomer (Human immunodeficiency virus type 1 group M subtype B, UniProt P03348); assay: biochemical; assay type: binding
CA hexamer = CA hexamer (Human immunodeficiency virus type 1 group M subtype B, UniProt P12493, A146C/E177C/M317A/W316A); assay: Surface plasmon resonance binding assay; design: species or system HIV-1
CA hexamer_M66I = CA hexamer_M66I (Human immunodeficiency virus type 1 group M subtype B, UniProt P12493, A146C/E177C/M198I/M317A/W316A); assay: Surface plasmon resonance binding assay; design: species or system HIV-1
[8] = test system: primary human hepatocytes; assay: Metabolic stability of [3H]GS-6207 in primary human hepatocytes; assay type: in vitro ADME; conditions: [3H]GS-6207, primary human hepatocytes
[9] = assay type: in vivo, human; conditions: for AUCexp: healthy volunteers, mean (%CV); for time plasma concentrations exceeded paEC95: single SC, healthy participants
[10] = Study GS-US-200-4072: safety in participants living with HIV; assay type: in vivo, human; conditions: for Any AE / Arthralgia / Constipation / Haemorrhoids / Headache / Injection site erythema / Injection site induration / Injection site nodule / Injection site pain / Nasopharyngitis / Nausea / Oropharyngeal pain / Rash / Serious AE: Atrial fibrillation / Syphilis / Upper respiratory tract infection / Vomiting: PLWH
HIV-1 capsid = assay: Study GS-US-200-4072: HIV-1 resistance analyses; conditions: in vivo
HIV-1 DNA = assay: Quantitation of HIV-1 DNA forms in infected MT-2 cells by PCR; conditions: GS-6207 at 1.25 nM
[11] = both, human, plasma, sc, 100 mg
[12] = both, human, plasma, sc, 300 mg
[13] = both, human, plasma, sc, 450 mg
[14] = GS-6207 20 mg or Placebo (n = 8)
[15] = GS-6207 50 mg or Placebo (n = 8)

CC(C)(C#Cc1ccc(-c2ccc(Cl)c3c(NS(C)(=O)=O)nn(CC(F)(F)F)c23)c([C@H](Cc2cc(F)cc(F)c2)NC(=O)Cn2nc(C(F)(F)F)c3c2C(F)(F)[C@@H]2C[C@H]32)n1)S(C)(=O)=O [GS-6207]
EC50 (HIV-1IIIb; Human immunodeficiency virus 1, MT4, read-out: mean EC50): 0.105 nM | EC95 (HIV-1IIIb; calculated from EC50 and Hill coefficient): 0.23 nM | EC50 (HIV-1BaL [1]): 0.032 nM | EC50 (HIV-1BaL [2]): 0.056 nM | CC50 (Cytotoxicity assay [3]): > 44400 nM | CC50 (Cytotoxicity assay [4]): > 44400 nM | CC50 (Cytotoxicity assay [5]): > 44400 nM | CC50 (Cytotoxicity assay [6]): > 44400 nM | CC50 (Cytotoxicity assay [7]): > 50000 nM | Kd (Gag polyprotein): 1.1 nM | Kd (CA monomer): 2.5 nM | Kd (CA hexamer): 0.24 ± 0.09 nM | koff (CA hexamer; CA hexamer): 1.4 ± 0.4 x 10^−5 s^−1 | kon (CA hexamer; CA hexamer): 6.5 ± 0.3 x 10^4 M^−1s^−1 | Kd (CA hexamer_M66I): 60 nM | koff (CA hexamer_M66I; CA hexamer_M66I): 2.6 ± 0.3 x 10^−3 s^−1 | kon (CA hexamer_M66I; CA hexamer_M66I): 6 ± 4 x 10^4 M^−1s^−1 | hepatic extraction [8]: 0.8% | predicted rate of hepatic clearance [8]: 0.17 mL/min/kg | AUCexp ([9]; 30 mg SC): 17.6 (69.4) % | AUCexp ([9]; 100 mg SC): 6.78 (65.0) % | AUCexp ([9]; 300 mg SC): 5.39 (126) % | AUCexp ([9]; 450 mg SC): 3.29 (69.9) % | AUC(0-inf) ([9]; both, human, plasma, sc, 30 mg): 8700 ng·h/mL | AUC(0-t) ([9]; both, human, plasma, sc, 30 mg): 5500 ng·h/mL | Cmax ([9]; both, human, plasma, sc, 30 mg): 3.2 ng/mL | half-life ([9]; both, human, plasma, sc, 30 mg): 37 days | AUC(0-inf) [9, 11]: 27300 ng·h/mL | AUC(0-t) [9, 11]: 23600 ng·h/mL | Cmax [9, 11]: 14.7 ng/mL | half-life [9, 11]: 31.9 days | AUC(0-inf) [9, 12]: 86100 ng·h/mL | AUC(0-t) [9, 12]: 73100 ng·h/mL | Cmax [9, 12]: 47.9 ng/mL | half-life [9, 12]: 45.4 days | AUC(0-inf) [9, 13]: 108000 ng·h/mL | AUC(0-t) [9, 13]: 97600 ng·h/mL | Cmax [9, 13]: 58.4 ng/mL | Tmax [9, 13]: 14 days | half-life [9, 13]: 39.7 days | time plasma concentrations exceeded paEC95 ([9]; doses ≥ 100 mg): ≥ 12 weeks | time plasma concentrations exceeded paEC95 ([9]; doses ≥ 300 mg): > 24 weeks | duration of sustained plasma exposure at antivirally active concentrations ([9]; single subcutaneous dose 450 mg): > 6 months | Any AE [10, 14]: 5 (63) n (%) | Arthralgia [10, 14]: 0 n (%) | Constipation [10, 14]: 0 n (%) | Haemorrhoids [10, 14]: 0 n (%) | Headache [10, 14]: 1 (13) n (%) | Injection site erythema [10, 14]: 1 (13) n (%) | Injection site induration [10, 14]: 0 n (%) | Injection site nodule [10, 14]: 0 n (%) | Injection site pain [10, 14]: 0 n (%) | Nasopharyngitis [10, 14]: 0 n (%) | Nausea [10, 14]: 2 (25) n (%) | Oropharyngeal pain [10, 14]: 1 (13) n (%) | Rash [10, 14]: 1 (13) n (%) | Serious AE: Atrial fibrillation [10, 14]: 0 n (%) | Syphilis [10, 14]: 0 n (%) | Upper respiratory tract infection [10, 14]: 0 n (%) | Vomiting [10, 14]: 2 (25) n (%) | Any AE [10, 15]: 6 (75) n (%) | Arthralgia [10, 15]: 0 n (%) | Constipation [10, 15]: 1 (13) n (%) | Haemorrhoids [10, 15]: 1 (13) n (%) | Headache [10, 15]: 0 n (%) | Injection site erythema [10, 15]: 1 (13) n (%) | Injection site induration [10, 15]: 1 (13) n (%) | Injection site nodule [10, 15]: 1 (13) n (%) | Injection site pain [10, 15]: 4 (50) n (%) | Nasopharyngitis [10, 15]: 0 n (%) | Nausea [10, 15]: 1 (13) n (%) | Oropharyngeal pain [10, 15]: 1 (13) n (%) | Rash [10, 15]: 1 (13) n (%) | Serious AE: Atrial fibrillation [10, 15]: 0 n (%) | Syphilis [10, 15]: 1 (13) n (%) | Upper respiratory tract infection [10, 15]: 0 n (%) | Vomiting [10, 15]: 1 (13) n (%) | safety and tolerability ([10]; single SC 20 to 450 mg, participants with untreated HIV-1 infection): generally safe and well tolerated | decrease in phenotypic susceptibility (HIV-1 capsid): 1.6 fold | HIV cDNA synthesis (late RT products) (HIV-1 DNA): did not alter | formation of 2-LTR circles (HIV-1 DNA): significantly reduced | formation of integrated proviruses (HIV-1 DNA): significantly reduced
